Experimental data taken from patent US20240368173A1, “TRICYCLIC GPR65 MODULATORS” (PATHIOS THERAPEUTICS LIMITED, priority 2021, published 2024).

Target: human recombinant GPR65 (Homo sapiens, UniProt Q8IYL9)
Assay: Human GPR65 cAMP HTRF antagonist assay
Assay type: cell-based
Details: not given
Method in brief: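 Antagonism measured as suppression of the cAMP rise when pH is dropped to 7.2 (control wells pH 7.9) in 1321N1 cells stably carrying human GPR65. Cells in KRH with 1 mM IBMX and 200 μM EDTA saw compound 30 min, then acid stimulation 30 min; HTRF cAMP detection, normalised, 4-parameter logistic IC50.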

Sequence of human recombinant GPR65 (Q8IYL9 whole entry): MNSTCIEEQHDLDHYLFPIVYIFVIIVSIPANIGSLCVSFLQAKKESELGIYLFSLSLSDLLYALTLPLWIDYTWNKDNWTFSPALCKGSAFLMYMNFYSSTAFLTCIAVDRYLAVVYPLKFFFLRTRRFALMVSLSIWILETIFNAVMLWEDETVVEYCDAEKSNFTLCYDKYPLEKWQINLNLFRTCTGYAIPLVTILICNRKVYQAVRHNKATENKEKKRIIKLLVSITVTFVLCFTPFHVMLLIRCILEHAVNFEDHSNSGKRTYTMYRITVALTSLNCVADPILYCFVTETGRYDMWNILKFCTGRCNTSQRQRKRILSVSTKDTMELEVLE

SMILES	IC50
O=C(Nc1ccc(C(F)(F)F)c(Br)c1)N1C2CCC1c1n[nH]c(=O)cc1C2 (racemic) [Compound 3, (±)-N-(3-Bromo-4-(trifluoromethyl)phenyl)-3-oxo-3,5,6,7,8,9-hexahydro-2H-6,9-epiminocyclohepta[c]pyridazine-10-carboxamide]	< 500 nM
O=C(Nc1cc(Br)c(Cl)cc1F)N1C2CCC1c1n[nH]c(=O)cc1C2 (racemic) [Compound 7, (±)-N-(5-Bromo-4-chloro-2-fluorophenyl)-3-oxo-3,5,6,7,8,9-hexahydro-2H-6,9-epiminocyclohepta[c]pyridazine-10-carboxamide]	< 500 nM
O=C(Nc1cc(Cl)c(-c2cnc(F)nc2)cc1F)N1[C@H]2CC[C@@H]1c1n[nH]c(=O)cc1C2 [Compound 178, (6S,9R)-N-(5-Chloro-2-fluoro-4-(2-fluoropyrimidin-5-yl)phenyl)-3-oxo-3,5,6,7,8,9-hexahydro-2H-6,9-epiminocyclohepta[c]pyridazine-10-carboxamide]	< 500 nM
O=C(Nc1cc(-c2cncc(F)c2)c(C(F)(F)F)cc1F)N1[C@H]2CC[C@@H]1c1n[nH]c(=O)cc1C2 [Compound 257, (6S,9R)-N-(2-Fluoro-5-(5-fluoropyridin-3-yl)-4-(trifluoromethyl)phenyl)-3-oxo-3,5,6,7,8,9-hexahydro-2H-6,9-epiminocyclohepta[c]pyridazine-10-carboxamide]	< 500 nM
COc1cncc(-c2cc(F)c(NC(=O)N3[C@H]4CC[C@@H]3c3n[nH]c(=O)cc3C4)cc2Cl)c1 [Compound 114, (6S,9R)—N-(5-Chloro-2-fluoro-4-(5-methoxypyridin-3-yl)phenyl)-3-oxo-3,5,6,7,8,9-hexahydro-2H-6,9-epiminocyclohepta[c]pyridazine-10-carboxamide]	< 500 nM
O=C(Nc1cc(Cl)c(I)cc1F)N1[C@H]2CC[C@@H]1c1ccnc(F)c1C2 [Compound 77, (5R,8S)-N-(5-Chloro-2-fluoro-4-iodophenyl)-1-fluoro-6,7,8,9-tetrahydro-5H-5,8-epiminocyclohepta[c]pyridine-10-carboxamide]	< 500 nM
O=C(Nc1cc(Cl)c(Cl)cc1F)N1C2CCC1c1ccnnc1C2 (racemic) [Compound 84, (±)-N-(4,5-Dichloro-2-fluorophenyl)-6,7,8,9-tetrahydro-5H-5,8-epiminocyclohepta[c]pyridazine-10-carboxamide]	< 500 nM
COCc1ccc(-c2cc(F)c(NC(=O)N3[C@H]4CC[C@@H]3c3n[nH]c(=O)cc3C4)cc2Cl)cn1 [Compound 278, (6S,9R)-N-(5-Chloro-2-fluoro-4-(6-(methoxymethyl)pyridin-3-yl)phenyl)-3-oxo-3,5,6,7,8,9-hexahydro-2H-6,9-epiminocyclohepta[c]pyridazine-10-carboxamide]	< 500 nM
O=C(Nc1cc(Cl)c(-c2cc(F)cnc2F)cc1F)N1[C@H]2CC[C@@H]1c1c[nH]c(=O)cc1C2 [Compound 252, (6S,9R)-N-(5-Chloro-4-(2,5-difluoropyridin-3-yl)-2-fluorophenyl)-3-oxo-3,5,6,7,8,9-hexahydro-2H-6,9-epiminocyclohepta[c]pyridine-10-carboxamide]	< 500 nM
O=C(Nc1noc2ccccc12)N1[C@H]2CC[C@@H]1c1n[nH]c(=O)cc1C2 [Compound 187, (6S,9R)-N-(Benzo[d]isoxazol-3-yl)-3-oxo-3,5,6,7,8,9-hexahydro-2H-6,9-epiminocyclohepta[c]pyridazine-10-carboxamide]	500 to 5000 nM
O=C(Nc1cc(F)c(NC(=O)N2[C@H]3CC[C@@H]2c2n[nH]c(=O)cc2C3)cc1Cl)c1ccccc1 [Compound 236, (6S,9R)—N-(4-benzamido-5-chloro-2-fluorophenyl)-3-oxo-3,5,6,7,8,9-hexahydro-2H-6,9-epiminocyclohepta[c]pyridazine-10-carboxamide]	500 to 5000 nM
O=C(Nc1cc(Cl)c(Cl)cc1F)N1C2CCC1c1ncnc(F)c1C2 (racemic) [Compound 87, (±)—N-(4,5-Dichloro-2-fluorophenyl)-4-fluoro-6,7,8,9-tetrahydro-5H-6,9-epiminocyclohepta[d]pyrimidine-10-carboxamide]	< 500 nM
O=C(Nc1cc(Cl)c(-c2ccc(OCC(F)F)nc2)cc1F)N1[C@H]2CC[C@@H]1c1n[nH]c(=O)cc1C2 [Compound 305, (6S,9R)-N-(5-Chloro-4-(6-(2,2-difluoroethoxy)pyridin-3-yl)-2-fluorophenyl)-3-oxo-3,5,6,7,8,9-hexahydro-2H-6,9-epiminocyclohepta[c]pyridazine-10-carboxamide]	< 500 nM
CN1C(=O)Cc2ccc(-c3cc(F)c(NC(=O)N4[C@H]5CC[C@@H]4c4n[nH]c(=O)cc4C5)cc3Cl)cc21 [Compound 163, (6S,9R)-N-(5-Chloro-2-fluoro-4-(1-methyl-2-oxoindolin-6-yl)phenyl)-3-oxo-3,5,6,7,8,9-hexahydro-2H-6,9-epiminocyclohepta[c]pyridazine-10-carboxamide]	< 500 nM
CO[C@H]1C[C@H](Oc2ccc(-c3cc(F)c(NC(=O)N4[C@H]5CC[C@@H]4c4n[nH]c(=O)cc4C5)cc3Cl)cn2)C1 [Compound 306, (6S,9R)-N-(5-Chloro-2-fluoro-4-(6-((1r,3R)-3-methoxycyclobutoxy)pyridin-3-yl)phenyl)-3-oxo-3,5,6,7,8,9-hexahydro-2H-6,9-epiminocyclohepta[c]pyridazine-10-carboxamide]	< 500 nM
O=C(Nc1ccc(C(F)(F)F)c(Cl)c1)N1C2CCC1c1n[nH]c(=O)cc1C2 (racemic) [Compound 76, (±)-N-(3-Chloro-4-(trifluoromethyl)phenyl)-3-oxo-3,5,6,7,8,9-hexahydro-2H-6,9-epiminocyclohepta[c]pyridazine-10-carboxamide]	< 500 nM
O=C(Nc1cc(Cl)c(-c2ccncc2)cc1F)N1[C@H]2CC[C@@H]1c1n[nH]c(=O)cc1C2 [Compound 173, (6S,9R)-N-(5-Chloro-2-fluoro-4-(pyridin-4-yl)phenyl)-3-oxo-3,5,6,7,8,9-hexahydro-2H-6,9-epiminocyclohepta[c]pyridazine-10-carboxamide]	< 500 nM
O=C(Nc1cc(Cl)c(OC2CCC2)cc1F)N1[C@H]2CC[C@@H]1c1c[nH]c(=O)cc1C2 [Compound 81, (6S,9R)-N-(5-Chloro-4-cyclobutoxy-2-fluorophenyl)-3-oxo-3,5,6,7,8,9-hexahydro-2H-6,9-epiminocyclohepta[c]pyridine-10-carboxamide]	< 500 nM
N#Cc1ccc(-c2cc(F)c(NC(=O)N3[C@H]4CC[C@@H]3c3n[nH]c(=O)cc3C4)cc2Cl)cn1 [Compound 124, (6S,9R)-N-(5-Chloro-4-(6-cyanopyridin-3-yl)-2-fluorophenyl)-3-oxo-3,5,6,7,8,9-hexahydro-2H-6,9-epiminocyclohepta[c]pyridazine-10-carboxamide]	< 500 nM
O=C(Nc1cc(Cl)c(-c2cnc(F)c(F)c2)cc1F)N1[C@H]2CC[C@@H]1c1c[nH]c(=O)cc1C2 [Compound 261, (6S,9R)-N-(5-Chloro-4-(5,6-difluoropyridin-3-yl)-2-fluorophenyl)-3-oxo-3,5,6,7,8,9-hexahydro-2H-6,9-epiminocyclohepta[c]pyridine-10-carboxamide]	< 500 nM
O=C(Nc1ccc(Br)c(Cl)c1)N1C2CCC1c1n[nH]c(=O)cc1C2 (racemic) [Compound 4, (±)-N-(4-Bromo-3-chlorophenyl)-3-oxo-3,5,6,7,8,9-hexahydro-2H-6,9-epiminocyclohepta[c]pyridazine-10-carboxamide]	< 500 nM
COc1cncc(-c2cc(F)c(NC(=O)N3[C@H]4CC[C@@H]3c3c[nH]c(=O)cc3C4)cc2Cl)c1 [Compound 249, (6S,9R)-N-(5-Chloro-2-fluoro-4-(5-methoxypyridin-3-yl)phenyl)-3-oxo-3,5,6,7,8,9-hexahydro-2H-6,9-epiminocyclohepta[c]pyridine-10-carboxamide]	< 500 nM
O=C(Nc1cc(Cl)c(OC2CCC2)cc1F)N1[C@H]2CC[C@@H]1c1ccnc(F)c1C2 [Compound 67, (5R,8S)-N-(5-Chloro-4-cyclobutoxy-2-fluorophenyl)-1-fluoro-6,7,8,9-tetrahydro-5H-5,8-epiminocyclohepta[c]pyridine-10-carboxamide]	< 500 nM

Same assay, conditions: 1321N1-hrGPR65 cells, cAMP HTRF, assay pH 7.2; read-out: hGPR65 IC50 (Activity of selected compounds according to the invention)

SMILES	IC50
O=C(Nc1cc(Cl)c(-c2cccc(CN3CCCC3)c2)cc1F)N1[C@H]2CC[C@@H]1c1n[nH]c(=O)cc1C2 [Compound 135, (6S,9R)-N-(2-Chloro-5-fluoro-3′-(pyrrolidin-1-ylmethyl)-[1,1′-biphenyl]-4-yl)-3-oxo-3,5,6,7,8,9-hexahydro-2H-6,9-epiminocyclohepta[c]pyridazine-10-carboxamide]	500 to 5000 nM
O=C(Nc1cc(Br)c(C(F)(F)F)cc1F)N1[C@@H]2CC[C@H]1c1c[nH]c(=O)nc1C2 [Compound 29, (5S,8R)-N-(5-Bromo-2-fluoro-4-(trifluoromethyl)phenyl)-2-oxo-3,5,6,7,8,9-hexahydro-2H-5,8-epiminocyclohepta[d]pyrimidine-10-carboxamide]	> 5000 nM
O=C(Nc1cc(-c2cccnc2F)c(-c2cccnc2F)cc1F)N1[C@H]2CC[C@@H]1c1n[nH]c(=O)cc1C2 [Compound 116, (6S,9R)-N-(2-Fluoro-4,5-bis(2-fluoropyridin-3-yl)phenyl)-3-oxo-3,5,6,7,8,9-hexahydro-2H-6,9-epiminocyclohepta[c]pyridazine-10-carboxamide]	500 to 5000 nM
N#Cc1cc(F)c(NC(=O)N2C3CCC2c2n[nH]c(=O)cc2C3)cc1Cl (racemic) [Compound 53, (±)-N-(5-Chloro-4-cyano-2-fluorophenyl)-3-oxo-3,5,6,7,8,9-hexahydro-2H-6,9-epiminocyclohepta[c]pyridazine-10-carboxamide]	500 to 5000 nM
O=C(Nc1cc(Cl)c(Cl)cc1F)N1[C@H]2CC[C@@H]1c1nccc(F)c1C2 [Compound 91, (6S,9R)-N-(4,5-dichloro-2-fluorophenyl)-4-fluoro-6,7,8,9-tetrahydro-5H-6,9-epiminocyclohepta[b]pyridine-10-carboxamide]	500 to 5000 nM
